Measurements reported in patent US8835433B2, “Optically pure diastereomers of 10-Propargyl-10-deazaaminopterin and methods of using same for the treatment of cancer” (Allos Therapeutics, Inc., priority 2010, dated 2014).

Tests used:
[1] = system: MDA-MB-435 (melanoma) human tumor cell line; assay: MTS growth inhibition assay, MDA-MB-435; type: cell-based; details: 3 h treatment, 72 h recovery
Description: (§1) The agents PDX, PDX-10a, PDX-10b, were evaluated for growth inhibitory activity against, MDA-MB-435, SKBR-3 and NCI-H460 human tumor cell lines. Growth inhibition was measured by MTS assay following three hours of continuous treatment and a seventy-two hour recovery incubation. The purpose of these studies was to determine the cytotoxic activity of the compounds in the tumor cell lines studies studied.
(§2) Materials and Methods. Preparation of PDX-10a and PDX-10b was performed as discussed in Examples 1-2. The PDX compounds were diluted in dimethylsulfoxide (DMSO) at a concentration of 20 mM. From this solution a stock solution of 2 mM was made by dilution with phosphate-buffered saline (PBS). This 2 mM stock solution in 10% DMSO/90% PBS was used to make 2× concentrations of the titration series in cell growth medium which was added to the cell cultures in a 1:1 ratio to make 1× concentrations. Cell lines—The human tumor cell lines: MDA-MB-435 (melanoma), SKBR-3 (breast cancer) and NCI-H460 (lung cancer) were cultured in RPMI medium (RPMI; Nova Tech, Grand Island, N.Y.) containing ten percent dialyzed fetal bovine serum (FBS; Nova Tech). Once cells reached seventy percent confluency, they were trypsinized and resuspended in an alternate media (RPMI containing five percent dialyzed FBS (Hyclone, Logan, Utah). One day prior to treatment (Day 0), cultures were suspended at a concentration of 1−7.5×10^4 cell/ml and 100 μl aliquots were plated into each well of a 96-well microtiter plate at a final concentration of 1×10^3-7.5×10^3 cells/well. Cells were incubated for 24 hours at 37° C. prior to exposure with agents.
(§3) Test Agents—racemic PDX, and individual diastereomers PDX-10a and PDX-10b were prepared as described above. Cells were treated 24 hours after plating (Day 1) with vehicle (media) alone or the above test agents for three hours at concentrations between 3 μM and 10 μM.
(§4) Single Agent Pulse Studies—Treatment with test agents or standard agents (controls) was initiated 24 hours after plating cells (Day 1). Cells were incubated at 37° C. with each of the test agents or a “chemococktail” (positive control) consisting of 215 μM Etoposide, 20 μM Taxol, 38.5 nM Velcade at final concentration for three hours. Following treatment, drug was removed, growth media added, and cells incubated at 37° C. for 72 hours. Following incubation, the viable cell number was quantified by the MTS assay described below. Experiments were repeated twice at the same concentrations. Results from these studies were used to calculate an IC50 value (concentration of drug that inhibits cell growth by 50% of the vehicle) for each compound. IC50 values were generated with Prizm software.
(§5) MTS Assay—Cell viability was determined using the MTS assay. This colorimetric procedure measures conversion of the MTS reagent (a tetrazolium salt) to formazan by living cells. Formazan production was quantified by spectrophotometric measurement at 490 nm and is proportional to viable cell number. For these studies, cells were cultured and treated as listed above. At the end of the treatment, 20 μl MTS tetrazolium (1.9 mg/ml in PBS, pH 6.0) was added to the cells for 1 hour at 37° C. Absorbance (OD) values were measured using a Dynex HD microplate reader at a single wavelength of 490 nm.
(§6) Data Analysis—Data from each experiment was collected and expressed as OD490 versus the log10 of the test agent concentration. […]

[2] = system: CWR22-RV1 (prostate) cell lines; assay: MTS growth inhibition assay, CWR22-RV1; type: cell-based; details: Homo sapiens, CWR22Rv1, separate experiments
[3] = Pharmacokinetics in dog (PDX-T-07054-D); type: in vivo; details: both sexes, dog, plasma, 0.7 mg/kg, dog, racemic mixture, males and females (mean)
Description: (§7) Bioanalytical methods were developed and validated for quantitation of the 2 pralatrexate C10 diastereomers (PDX-10a and PDX-10b) in human, rat and dog plasma and urine. The basic bioanalytical method involves extraction of PDX-10a and PDX-10b from the matrix utilizing C18 solid-phase extraction (SPE) cartridges followed by derivatization (methylation with acetyl chloride) of the diastereomers for separation detection. The derivatized extracts are injected on a chiral high-performance liquid chromatography (HPLC) column for quantitation of each diastereomer by liquid chromatography-tandem mass spectrometry (LC/MS/MS). The lower limit of quantitation (LLOQ) for both diastereomers in plasma and urine matrices was 0.5 ng/mL. […]

[4] = system: SKBR-3 (breast cancer) human tumor cell line; assay: MTS growth inhibition assay, SKBR-3; type: cell-based; details: SK-BR-3, SK-BR3 (breast), 3 h treatment, 72 h recovery
Description: as §1
Materials and Methods. Preparation of PDX-10a and PDX-10b was performed as discussed in Examples 1-2. The PDX compounds were diluted in dimethylsulfoxide (DMSO) at a concentration of 20 mM. From this solution a stock solution of 2 mM was made by dilution with phosphate-buffered saline (PBS). This 2 mM stock solution in 10% DMSO/90% PBS was used to make 2× concentrations of the titration series in cell growth medium which was added to the cell cultures in a 1:1 ratio to make 1× concentrations. Cell lines—The human tumor cell lines: MDA-MB-435 (melanoma), SKBR-3 (breast cancer) and NCI-H460 (lung cancer) were cultured in RPMI medium (RPMI; Nova Tech, Grand Island, N.Y.) containing ten percent dialyzed fetal bovine serum (FBS; Nova Tech). […]
Single Agent Pulse Studies—Treatment with test agents or standard agents (controls) was initiated 24 hours after plating cells (Day 1). […] Following incubation, the viable cell number was quantified by the MTS assay described below. […]
MTS Assay—Cell viability was determined using the MTS assay. […] Formazan production was quantified by spectrophotometric measurement at 490 nm and is proportional to viable cell number. […] Absorbance (OD) values were measured using a Dynex HD microplate reader at a single wavelength of 490 nm.
as §6

[5] = Pharmacokinetics in rat (PDX-T-07034-R); type: in vivo; details: both sexes, plasma, 5 mg/kg, racemic mixture, males and females (mean)
Description: as §7

[6] = Pharmacokinetics in human (PDX-008, noncompartmental); type: in vivo; details: both sexes, human, plasma, intravenous, 30 mg/m^2, human, racemic mixture, males and females (mean)
Description: Bioanalytical methods were developed and validated for quantitation of the 2 pralatrexate C10 diastereomers (PDX-10a and PDX-10b) in human, rat and dog plasma and urine. The basic bioanalytical method involves extraction of PDX-10a and PDX-10b from the matrix utilizing C18 solid-phase extraction (SPE) cartridges followed by derivatization (methylation with acetyl chloride) of the diastereomers for separation detection. The derivatized extracts are injected on a chiral high-performance liquid chromatography (HPLC) column for quantitation of each diastereomer by liquid chromatography-tandem mass spectrometry (LC/MS/MS). The lower limit of quantitation (LLOQ) for both diastereomers in plasma and urine matrices was 0.5 ng/mL.
In humans, PDX-10b clearance was approximately 50% lower for both renal clearance (CLren) and nonrenal clearance (CLnonren). The lower clearance and ˜2-fold lower volume of distribution at steady state (Vdss) of PDX-10b are likely responsible for the 2-fold higher plasma exposure of PDX-10b compared with PDX-10a that is observed in humans. However, the plasma concentration-time profiles for both diastereomers declined in parallel, and terminal elimination half-life (t1/2term) for both diastereomers was virtually identical. The biological cause for the observed stereoselectivity across species is unknown, but may be due to isomeric differences in plasma protein binding. Isomeric differences in tissue distribution and/or renal and hepatobiliary transport may contribute as well.

[7] = system: NCI-H460 (lung cancer) human tumor cell line; assay: MTS growth inhibition assay, NCI-H460; type: cell-based
Description: as §1, §2, §3, §4, §5
Data Analysis—Data from each experiment was collected and expressed as OD490 versus the log10 of the test agent concentration. Using the statistical analysis package of the Prizm analytical software (GraphPad, San Diego, Calif.), a non-linear curve fit was performed which yielded the 50% inhibition concentration of the test article (IC50).

[8] = C1D1, 30 mg/m^2 (0.81 mg/kg), n = 10
[9] = C1D6 or C2D6, 30 mg/m^2 (0.81 mg/kg), n = 6

IC50 ([1]; Homo sapiens, MDA-MB-435, MDA-MB-435 (melanoma)): 129 nM
IC50 ([1]; MDA-MB-435 (melanoma)): 129 nM
AUC(0-inf) ([3]; Day 1, 0.7 mg/kg (14 mg/m^2)): 1560 ng·h/mL
Cmax ([3]; Day 1, 0.7 mg/kg (14 mg/m^2)): 1790 ng/mL
AUC(0-inf) ([3]; Day 281, 0.7 mg/kg (14 mg/m^2)): 1340 ng·h/mL
Cmax ([3]; Day 281, 0.7 mg/kg (14 mg/m^2)): 649 ng/mL
IC50 [4]: 27.1 nM
AUC(0-inf) ([5]; Day 1, 5 mg/kg (30 mg/m^2)): 4870 ng·h/mL
Cmax ([5]; Day 1, 5 mg/kg (30 mg/m^2)): 19200 ng/mL
AUC(0-inf) ([5]; Day 85, 5 mg/kg (30 mg/m^2)): 4500 ng·h/mL
Cmax ([5]; Day 85, 5 mg/kg (30 mg/m^2)): 14300 ng/mL
AUC(0-inf) [6, 8]: 4460 ng·h/mL
Cmax [6, 8]: 5820 ng/mL
AUC(0-inf) [6, 9]: 3530 ng·h/mL
Cmax [6, 9]: 4960 ng/mL
IC50 ([7]; Homo sapiens, NCI-H460, NCI-H460 (lung), 3 h treatment, 72 h recovery, MTS): 100 nM
IC50 ([7]; Homo sapiens, NCI-H460, NCI-H460 repeat assay): 124 nM
IC50 ([7]; NCI-H460 repeat assay): 124 nM
Structure (SMILES): C#CCC(Cc1cnc2nc(N)nc(N)c2n1)c1ccc(C(=O)N[C@@H](CCC(=O)O)C(=O)O)cc1 (mixture of isomers) [PDX, (2S)-2-[[4-[(1RS)-1-[(2,4-diaminopteridin-6-yl)methyl]but-3-ynyl]benzoyl]amino]pentanedioic acid, reference compound]
IC50 [2]: 8.3 nM
